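96-well plates; 48 h exposure; 5 concentrations. Endpoints by linear interpolation between flanking doses. Not reached: highest tested concentration assigned. The concentration for full growth arrest is given as TGI.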
Key:
Assay in all cases: NCI anticancer screen, dose series, 48 h
[1] = test system: XF 498 CNS
[2] = test system: DMS 273 small cell lung
[3] = test system: A549 NSCLC
[4] = test system: DMS 114 small cell lung
[5] = test system: CCRF-CEM leukemia
[6] = test system: LXFL 529 NSCLC
[7] = test system: M19-MEL melanoma
[8] = test system: NCI-H23 lung
[9] = test system: SNB-78 CNS
[10] = test system: KM20L2 colon
[11] = test system: 786-0 renal
[12] = test system: SN12C renal
[13] = test system: NCI-H460 lung
[14] = test system: RXF-631 renal
[15] = test system: MDA-MB-435
[16] = test system: DLD-1 colon
[17] = test system: HOP-18 NSCLC

| Compound | TGI [1] [µM] | TGI [2] [µM] | TGI [3] [µM] | TGI [4] [µM] | TGI [5] [µM] | TGI [6] [µM] | TGI [7] [µM] | TGI [8] [µM] | TGI [9] [µM] | TGI [10] [µM] | TGI [11] [µM] | TGI [12] [µM] | TGI [13] [µM] | TGI [14] [µM] | TGI [15] [µM] | TGI [16] [µM] | TGI [17] [µM] |
| --- | --- | --- | --- | --- | --- | --- | --- | --- | --- | --- | --- | --- | --- | --- | --- | --- | --- |
| CCCn1c(SCC)c2cc3cc4ccccc4cc3cc2c1-c1nc(F)nc(F)n1 | > 100 | > 100 | > 100 | > 100 | > 100 | > 100 | > 100 | > 100 | > 100 | > 100 | > 100 | > 100 | > 100 | > 100 | – | – | – |
| CC1=NN(C(=O)c2ccccc2O)C(=O)/C1=C/c1ccccc1O | > 100 | – | > 100 | 8.86 | > 100 | > 100 | – | 20.9 | – | > 100 | 44.4 | 33.7 | > 100 | – | > 100 | > 100 | – |
| O=C(c1ccco1)N(C(=S)N1CCN(c2ccccn2)CC1)C1CCCCC1 | – | > 100 | > 100 | > 100 | > 100 | > 100 | > 100 | > 100 | > 100 | > 100 | > 100 | > 100 | > 100 | – | – | > 100 | > 100 |
| COC(=O)C1[C@@H](C(=O)OC)C12C=Cc1ccccc1C=C2 (stereo not given in full) | > 100 | > 100 | > 100 | > 100 | > 100 | > 100 | > 100 | > 100 | > 100 | > 100 | > 100 | > 100 | > 100 | – | – | > 100 | – |
| O=C(O)c1ccc(Nc2nc3ccccc3nc2-c2cccs2)cc1 | – | – | > 100 | – | > 100 | – | – | > 100 | – | – | > 100 | > 100 | > 100 | – | > 100 | – | – |
| CCOC(=O)[C@@H]1ON2O[C@H](OC3CCCC3(c3ccccc3)c3ccccc3)C[C@H]3OC(=O)[C@@H]1C32 (stereo not given in full) | – | – | 76.6 | – | 78.3 | – | – | 65.8 | – | – | > 100 | > 100 | > 100 | – | 97.9 | – | – |
| Cc1ccc(S(=O)(=O)NC2C(=O)c3ccccc3C(=O)C2n2cnc3ccccc32)cc1 (stereo not given) | – | – | > 100 | – | > 100 | – | – | 58.6 | – | – | > 100 | > 100 | 84.3 | – | 36.4 | – | – |
| Cn1c(Nc2ccccc2)c(C=Nc2ccccc2)c(=O)n(C)c1=O | – | – | > 100 | – | > 100 | – | – | > 100 | – | – | > 100 | > 100 | > 100 | – | > 100 | – | – |
| CCOC(=O)C1C(c2ccc(OC)cc2)c2c([nH][nH]c2=O)CC1(O)OCC (stereo not given) | – | – | > 100 | – | > 100 | – | – | > 100 | – | – | > 100 | > 100 | > 100 | – | > 100 | – | – |
| CCOC(=O)/C(C#N)=C1\c2c([nH]c(=S)[nH]c2=O)Oc2ccc3ccccc3c21 | – | – | > 100 | – | 4.26 | – | – | > 100 | – | – | > 100 | > 100 | > 100 | – | > 100 | – | – |
| c1ccc(Nc2nnc(Cn3ccc4ccccc43)s2)cc1 | – | – | > 100 | – | > 100 | – | – | > 100 | – | – | > 100 | > 100 | > 100 | – | > 100 | – | – |
| COc1ccc(-c2c(CN3CCOCC3)sc3nc4ccccc4n23)cc1 | – | – | > 86.1 | – | 56.2 | – | – | > 100 | – | – | > 76.8 | > 100 | 53.5 | – | 14.4 | – | – |

From PubChem BioAssay (NCI)
